In patent publication US7273848B2, “Apolipoprotein A-I agonists and their use to treat dyslipidemic disorders” (priority 1997, dated 2007):
No end group written: not given here.

Tests used:
[1] = Lipid binding by fluorescence spectroscopy; details: Ri 0 (buffer, no lipids), 2 μM
Experimental: The lipid binding properties of the peptides synthesized in Section 6, supra, were tested by fluorescence measurements with labeled peptides, in the present case Tryptophane (Trp or W) or Naphtylalanine (Nal). The fluorescence spectra were recorded on a Fluoromax from Spex (Jobin-Yvon) equipped with a Xenon lamp of 150 W, two monochromators (excitation and emission), a photomultiplier R-928 for detection sensitive in the red up to 850 nm and a thermoelectric magnetic stirred cell holder. Quartz Suprasil cuvettes were used for measurements in the micromolar concentration range. A device of variable slits (from 0.4 to 5 nm) allows modulation of the incident and emitted intensities according to the concentration of peptide used. The reported values are in general the average of between 2 to 4 spectra. The peptide concentration is determined by absorption spectrometry on a Philips PU 8800 using the absorption band of the Trp (ε280 nm=5,550 M^−1 cm^−1 in Tris buffer) or the Nal (ε224 nm =92,770 M^−1 cm^−1 in methanol)
Fluorescence spectra of the peptides were recorded between 290 nm and 450 nm in Tris-HCl buffer (20 mM, pH=7.5), in the presence and absence of lipidic vesicles. The small unilamellar vesicles were formed after rehydration in buffer of the lyophilized phospholipids, dispersion and tip sonification under a N2 stream. The lipids used were either Egg PC/Chol. (20:1) or POPC/Chol. (20:1). The spectra were recorded at a peptide concentration of 2 μM and at a temperature of 37° C. The fluorescence reference standard in the case of Trp was N-acetyltryptophanylamide (NATA).
Lipid binding studies were done through progressive lipidic vesicle addition to the peptide in solution at 2 μM (slits: 5 nm in excitation and 1.5 nm in emission). Dilution effects were taken into account for the fluorescence intensity determination. The lipid concentrations were varied from 10 to 600 μM and the molar ratio of lipid to peptide (Ri) was varied from 5 to 300. The wavelength of excitation was set at 280 nm for both Trp and Nal.
The data were directly recorded and treated by an IBM-PC linked to the spectrofluorimeter through the DM3000F software from Spex. The spectra were corrected by substraction of the solvent contribution and by application of a coefficient given by the constructor taking into account the variation of the photomultiplier response versus the wavelength.
The fluorescence spectra of the peptides were characterized by the wavelength at their maximum of fluorescence emission and by their quantum yield compared to NATA in the case of peptides labeled with a tryptophane. The process of binding to lipids was analyzed by calculating the shift of the wavelength at the maximum of fluorescence emission, (λmax), and the variation of the relative fluorescence intensity of emission versus the lipid concentration. The relative fluorescence intensity is defined as the following ratio: (I-I0)λmax/I0λmax. I and I0 are both measured at the (λmax) corresponding to the initial free state of the peptide, i.e., without lipids. I is the intensity at a defined lipid to peptide ratio and I0 is the same parameter measured in absence of lipids. The absence of these variations is relevant of the absence of interactions of the peptides with the lipids.

[2] = tested on: HDL cholesterol; assay: HDL cholesterol in rabbits after injection of phospholipid/peptide complex; assay type: in vivo, rabbit; details: 10 mg/kg i.v. as phospholipid complex
Experimental: Small discoidal particles consisting of phospholipid (DPPC) and peptide 146 (SEQ ID NO:146) were prepared following the cholate dialysis method. The phospholipid was dissolved in chloroform and dried under a stream of nitrogen. The peptide was dissolved in buffer (saline) at a concentration of 1-2 mg/ml. The lipid film was redissolved in buffer containing cholate (43° C.) and the peptide solution was added at a 3-1 phospholipid/peptide ratio. The mixture was incubated overnight at 43° C. and then dialyzed at 43° C. (24 hr.), room temperature (24 hr.) and 4° C. (24 hr.), with three changes of buffer (large volumes) at temperature point. The complexes were filter sterilized (0.22μ) for injection and storage at 4° C.
Male New Zealand White rabbits (2.5-3 kg) were injected intravenously with a dose of phospholipid/peptide complex (8 mg/kg bodyweight peptide 146 (SEQ ID NO:146) or 10 mg/kg bodyweight ApoA-I, expressed as peptide or protein content) in a single bolus injection not exceeding 10-15 ml. The animals were slightly sedated before the manipulations. Blood samples (collected on EDTA) were taken before and 5, 15, 30, 60, 240 and 1440 minutes after injection. The hematocrit (Hct) was determined for each sample. Samples were aliquoted and stored at −20° C. before analysis.
Plasma Lipids. The total plasma cholesterol, plasma triglycerides and plasma phospholipids were determined enzymatically using commercially available assays according to the manufacturer's protocols (Boehringer Mannheim, Mannheim, Germany and Biomerieux, 69280, Marcy-l'étoile, France).
Lipoprotein Profiles. The plasma lipoprotein profiles of the fractions obtained after the separation of the plasma into its lipoprotein fractions were determined by spinning in a sucrose density gradient. The fractions were collected and in each individual fraction the phospholipid and cholesterol content was measured enzymatically.

[3] = target: T1, LCAT (purified from human plasma) (Homo sapiens, UniProt P04180); assay: LCAT activation assay; assay type: biochemical; details: LCAT activation as compared with native human ApoA-I (= 100%), equivalent masses
T1 construct: from tissue; host or cells: human plasma
T1 sequence (P04180 25-440): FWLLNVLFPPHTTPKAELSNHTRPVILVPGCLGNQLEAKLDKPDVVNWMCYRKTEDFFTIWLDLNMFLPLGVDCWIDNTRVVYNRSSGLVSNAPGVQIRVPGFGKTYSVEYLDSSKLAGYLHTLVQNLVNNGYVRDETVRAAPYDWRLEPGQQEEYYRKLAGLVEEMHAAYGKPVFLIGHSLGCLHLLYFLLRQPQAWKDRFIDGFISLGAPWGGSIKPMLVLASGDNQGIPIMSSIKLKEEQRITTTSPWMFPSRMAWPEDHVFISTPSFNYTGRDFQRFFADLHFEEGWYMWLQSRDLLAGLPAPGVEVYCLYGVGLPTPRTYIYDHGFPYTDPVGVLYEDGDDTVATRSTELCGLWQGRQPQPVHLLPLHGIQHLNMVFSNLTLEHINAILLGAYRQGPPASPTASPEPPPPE
Summary of the method: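 Substrate SUVs of EPC or POPC with 14C-cholesterol (20:1 molar ratio), in 10 mM Tris, 0.14 M NaCl, 1 mM EDTA, pH 7.4, were preincubated with peptide or equal mass of plasma ApoA-I. Reaction started with human plasma LCAT; activation was measured as cholesterol-to-ester conversion relative to ApoA-I (100%).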

[4] = Circular dichroism helicity determination; assay type: physicochemical; details: percent helicity; for He (%) TFE: 5 μM peptide, 90% vol TFE; for He (%) TFE / He (%) SUVs: 37° C.; for He (%) free: unbound peptide 5 μM in 5 mM phosphate buffer, pH 7.4, 37° C.; for He (%) SUVs: peptide-SUV complexes (20:1 EPC:Chol., Ri=30 and Ri=50); for He (%) mics: peptide-micelle complexes, Ri=100, 37° C.
Summary of the method: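 Far-UV CD (190–260 nm) at 37° C on 5 μM peptide in 5 mM phosphate pH 7.4, free, with EPC:Chol 20:1 SUVs (Ri 30 or 50), lysophosphatidylcholine micelles (Ri 100) or 90% TFE. Spectra converted to molar ellipticity per residue; helicity from 222 nm ellipticity or CONTIN fitting to reference spectra, ±5%.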

| λmax (nm) [1] | ACTIVITY (%) LCAT [3] | He (%) TFE [4] | He (%) free [4] | He (%) SUVs [4] | He (%) mics [4] | Compound | Increase in HDL Cholesterol (%) ([2]; 5 min.) | Increase in HDL Cholesterol (%) ([2]; 15 min.) | Increase in HDL Cholesterol (%) ([2]; 60 min.) | Increase in HDL Cholesterol (%) ([2]; 240 min.) |
| --- | --- | --- | --- | --- | --- | --- | --- | --- | --- | --- |
| 350 nm | – | – | – | – | – | CC(=O)N[C@@H](Cc1c[nH]c2ccccc12)C(N)=O [NATA, N-acetyltryptophanylamide, reference compound] | – | – | – | – |
| – | – | – | – | – | – | Native ApoA-I: ApoA-I (isolated from human plasma), used as positive control; injected as phospholipid complex in rabbits | 19.3% | 16% | 15.8% | −24.1% |
| – | 75% | 80% | 10% | 23% | 76% | PVLELFENLLERLGDALQKKLK [peptide 148] | – | – | – | – |
| – | 24% | 61% | 37% | 51% | 66% | PVLELFENLLERLLDAWQKKLK [compound 164] | – | – | – | – |
| – | 28% | 61% | 65% | 75% | 73% | PVLELFENLLERLLDWLQKKLK [compound 160] | – | – | – | – |
| – | 26% | 55% | 27% | – | 53% | PVLELFENLLERLWDALQKKLK [compound 163] | – | – | – | – |
| – | 27% | – | 68% | 81% | 83% | PVLELFENWLERLLDALQKKLK [compound 162] | – | – | – | – |
| – | 14% | 94% | 81% | 84% | 90% | VLDLFRELLNELLEALKQKLK [compound 67] | – | – | – | – |
